PubChem BioAssay (NCI)
≈ marks a conversion by molar mass, not a printed value.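 Each compound was tested at five concentrations against cells in 96-well plates for 48 hours. At the GI50, growth is halved. TGI marks complete inhibition of growth.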 Where a SMILES comes first, the peptide text is derived from it. The star is where a group is joined. Boc = CC(C)(C)OC(=O)*; OcHex = C1CCC(O*)CC1

Experiments:
Assay in all cases: NCI anticancer screen, dose series, 48 h
BT-549 breast = tested on: BT-549 breast
HOP-92 NSCLC = tested on: HOP-92 NSCLC
K-562 leukemia = tested on: K-562 leukemia
M14 melanoma = tested on: M14 melanoma
MALME-3M melanoma = tested on: MALME-3M melanoma
MOLT-4 leukemia = tested on: MOLT-4 leukemia
NCI-H522 lung = tested on: NCI-H522 lung
SK-MEL-28 melanoma = tested on: SK-MEL-28 melanoma
SK-OV-3 ovarian = tested on: SK-OV-3 ovarian
SNB-75 CNS = tested on: SNB-75 CNS
UACC-257 melanoma = tested on: UACC-257 melanoma
UACC-62 melanoma = tested on: UACC-62 melanoma
UO-31 renal = tested on: UO-31 renal
786-0 renal = tested on: 786-0 renal
A498 renal = tested on: A498 renal
A549 NSCLC = tested on: A549 NSCLC
ACHN renal = tested on: ACHN renal
COLO 205 colon = tested on: COLO 205 colon
HCC-2998 colon = tested on: HCC-2998 colon
HCT-116 colon = tested on: HCT-116 colon
HL-60(TB) leukemia = tested on: HL-60(TB) leukemia
HOP-62 NSCLC = tested on: HOP-62 NSCLC
HS 578T breast = tested on: HS 578T breast
HT29 colon = tested on: HT29 colon
IGROV1 ovarian = tested on: IGROV1 ovarian
LOX IMVI melanoma = tested on: LOX IMVI melanoma
MCF7 breast = tested on: MCF7 breast
NCI-H226 lung = tested on: NCI-H226 lung
NCI-H23 lung = tested on: NCI-H23 lung
NCI-H460 lung = tested on: NCI-H460 lung
NCI/ADR-RES ovarian = tested on: NCI/ADR-RES ovarian
OVCAR-3 ovarian = tested on: OVCAR-3 ovarian
OVCAR-4 ovarian = tested on: OVCAR-4 ovarian
OVCAR-5 ovarian = tested on: OVCAR-5 ovarian
OVCAR-8 ovarian = tested on: OVCAR-8 ovarian
RPMI-8226 leukemia = tested on: RPMI-8226 leukemia
RXF 393 renal = tested on: RXF 393 renal
SF-295 CNS = tested on: SF-295 CNS
SF-539 CNS = tested on: SF-539 CNS
SK-MEL-5 melanoma = tested on: SK-MEL-5 melanoma
SNB-19 CNS = tested on: SNB-19 CNS
SR leukemia = tested on: SR leukemia
SW-620 colon = tested on: SW-620 colon
T-47D breast = tested on: T-47D breast
TK-10 renal = tested on: TK-10 renal
U251 CNS = tested on: U251 CNS

`CC(C)CC(NC(=O)OC(C)(C)C)C(=O)NC(CCC(=O)OC1CCCCC1)C(N)=O` (stereo not drawn) (Boc-Leu-Glu(OcHex)-NH2; configuration not given here) showed a GI50 (BT-549 breast) of 63.5 µg/mL, a GI50 (HOP-92 NSCLC) of 12.5 µg/mL and a TGI (HOP-92 NSCLC) of 36.7 µg/mL. It also gave a GI50 (K-562 leukemia) of 51.9 µg/mL, a GI50 (M14 melanoma) of 78.8 µg/mL (≈ 178 µM) and a GI50 (MALME-3M melanoma) of 42.9 µg/mL. The GI50 (MOLT-4 leukemia) was 62.9 µg/mL, the GI50 (NCI-H522 lung) was 12.2 µg/mL and the TGI (NCI-H522 lung) was 45.9 µg/mL. For the same molecule, the GI50 (SK-MEL-28 melanoma) was 44.8 µg/mL, the GI50 (SK-OV-3 ovarian) was 92.7 µg/mL and the GI50 (SNB-75 CNS) was 71.5 µg/mL. For the same molecule, the GI50 (UACC-257 melanoma) was 51.2 µg/mL, the GI50 (UACC-62 melanoma) was 94.8 µg/mL and the GI50 (UO-31 renal) was 94.8 µg/mL.
In the case of `COc1cc(C(=O)/C=C/c2cccc(Nc3ccnc4cc(Cl)ccc34)c2)cc(OC)c1OC`, the GI50 (786-0 renal) is reported as 564 nM, the TGI (786-0 renal) is reported as 1950 nM and the GI50 (A498 renal) is reported as 1540 nM. It also gave a TGI (A498 renal) of 4.21 µM, a GI50 (A549 NSCLC) of 1480 nM and a TGI (A549 NSCLC) of 3.91 µM. The GI50 (ACHN renal) was 1240 nM, the TGI (ACHN renal) was 2490 nM and the GI50 (BT-549 breast) was 1230 nM. It also gave a TGI (BT-549 breast) of 2840 nM, a GI50 (COLO 205 colon) of 1340 nM and a TGI (COLO 205 colon) of 3.69 µM. For the same molecule, the GI50 (HCC-2998 colon) was 1720 nM, the TGI (HCC-2998 colon) was 3.21 µM and the GI50 (HCT-116 colon) was 347 nM. For the same molecule, the TGI (HCT-116 colon) was 1290 nM, the GI50 (HL-60(TB) leukemia) was 1820 nM and the TGI (HL-60(TB) leukemia) was 4.52 µM. It also gave a GI50 (HOP-62 NSCLC) of 676 nM, a TGI (HOP-62 NSCLC) of 2270 nM and a GI50 (HOP-92 NSCLC) of 1470 nM. It also gave a TGI (HOP-92 NSCLC) of 5.84 µM, a GI50 (HS 578T breast) of 2490 nM and a TGI (HS 578T breast) of 14.2 µM. The GI50 (HT29 colon) was 323 nM, the TGI (HT29 colon) was 1300 nM and the GI50 (IGROV1 ovarian) was 1320 nM. The TGI (IGROV1 ovarian) was 3.8 µM, the GI50 (K-562 leukemia) was 403 nM and the TGI (K-562 leukemia) was 3.23 µM. It also gave a GI50 (LOX IMVI melanoma) of 373 nM, a TGI (LOX IMVI melanoma) of 1460 nM and a GI50 (MALME-3M melanoma) of 1460 nM. The TGI (MALME-3M melanoma) was 3.38 µM, the GI50 (MCF7 breast) was 609 nM and the TGI (MCF7 breast) was 2060 nM. It also gave a GI50 (MOLT-4 leukemia) of 1790 nM, a TGI (MOLT-4 leukemia) of 6.46 µM and a GI50 (NCI-H226 lung) of 1270 nM. It also gave a TGI (NCI-H226 lung) of 2950 nM, a GI50 (NCI-H23 lung) of 1670 nM and a TGI (NCI-H23 lung) of 3.68 µM. It also gave a GI50 (NCI-H460 lung) of 1910 nM, a TGI (NCI-H460 lung) of 4.49 µM and a GI50 (NCI-H522 lung) of 594 nM. For the same molecule, the TGI (NCI-H522 lung) was 2250 nM, the GI50 (NCI/ADR-RES ovarian) was 409 nM and the TGI (NCI/ADR-RES ovarian) was 2940 nM. It also gave a GI50 (OVCAR-3 ovarian) of 389 nM, a TGI (OVCAR-3 ovarian) of 1390 nM and a GI50 (OVCAR-4 ovarian) of 1260 nM. The TGI (OVCAR-4 ovarian) was 2570 nM, the GI50 (OVCAR-5 ovarian) was 1700 nM and the TGI (OVCAR-5 ovarian) was 3.29 µM. The GI50 (OVCAR-8 ovarian) was 524 nM, the TGI (OVCAR-8 ovarian) was 2120 nM and the GI50 (RPMI-8226 leukemia) was 312 nM. For the same molecule, the TGI (RPMI-8226 leukemia) was 1420 nM, the GI50 (RXF 393 renal) was 1080 nM and the TGI (RXF 393 renal) was 2480 nM. For the same molecule, the GI50 (SF-295 CNS) was 1420 nM, the TGI (SF-295 CNS) was 3.03 µM and the GI50 (SF-539 CNS) was 1360 nM. For the same molecule, the TGI (SF-539 CNS) was 2680 nM, the GI50 (SK-MEL-28 melanoma) was 1510 nM and the TGI (SK-MEL-28 melanoma) was 3.01 µM. It also gave a GI50 (SK-MEL-5 melanoma) of 1380 nM, a TGI (SK-MEL-5 melanoma) of 2670 nM and a GI50 (SK-OV-3 ovarian) of 1940 nM. For the same molecule, the TGI (SK-OV-3 ovarian) was 4.51 µM, the GI50 (SNB-19 CNS) was 1180 nM and the TGI (SNB-19 CNS) was 2450 nM. For the same molecule, the GI50 (SNB-75 CNS) was 1310 nM, the TGI (SNB-75 CNS) was 3.64 µM and the GI50 (SR leukemia) was 324 nM. It also gave a TGI (SR leukemia) of 1420 nM, a GI50 (SW-620 colon) of 445 nM and a TGI (SW-620 colon) of 2440 nM. It also gave a GI50 (T-47D breast) of 1220 nM, a TGI (T-47D breast) of 3.17 µM and a GI50 (TK-10 renal) of 1450 nM. For the same molecule, the TGI (TK-10 renal) was 2970 nM, the GI50 (U251 CNS) was 911 nM and the TGI (U251 CNS) was 2240 nM. The GI50 (UACC-257 melanoma) was 1430 nM, the TGI (UACC-257 melanoma) was 3.06 µM and the GI50 (UACC-62 melanoma) was 1030 nM. The TGI (UACC-62 melanoma) was 2360 nM, the GI50 (UO-31 renal) was 566 nM and the TGI (UO-31 renal) was 1950 nM.
